# Values quoted from earlier work as cited in PubChem BioAssay AID1259409 (Chemical Carcinogenesis Research Information System (CCRIS), 2018).
# System: rodent chemically induced tumor inhibition, incidence and multiplicity
# Assay: CCRIS tumor inhibitor studies
# Conditions: Carcinogen: 7,12-DIMETHYLBENZ[A]ANTHRACENE; 57-97-6; Dose [Inhibitor]: 0; 400 UG IN 0.2 ML METHANOL:ACETONE (1:4) APPLIED 10 MIN PRIOR TO EACH PROMOTER DOSE FOR 20 WK (STUDY DURATION: 20 WK); Route [Inhibitor]: DERMAL; Species: MOUSE; Strain/Sex: CD-1/FEMALE; Target Tissue: Type of Lesion: SKIN: TUMOR; Dose [Carcinogen]: 100 UG ONCE; Promoter: 12-O-TETRADECANOYLPHORBOL-13-ACETATE; 16561-29-8; MEZEREIN; 34807-41-5; Promoter: 12-O-TETRADECANOYLPHORBOL-13-ACETATE; 16561-29-8; MEZEREIN; 34807-41-5
smiles,measurement,value
CC(C)CCC[C@@H](C)[C@H]1CC[C@H]2[C@@H]3CC=C4C[C@@H](OS(=O)(=O)O)CC[C@]4(C)[C@H]3CC[C@]12C,"tumour outcome (control, treated, inhibition, significance)","90%, 40%, 56%, not calculated"
